Values quoted from earlier work, collected in patent US20050032777A1, “Diazacycloalkanes as oxytocin agonists” (priority 2001, published 2005).
Like-named read-outs stand apart in the source and are kept apart here.

System: erectile response
Details: male rats

## CC[C@H](C)[C@@H]1NC(=O)[C@H](Cc2ccc(O)cc2)NC(=O)[C@@H](N)CSSC[C@@H](C(=O)N2CCC[C@H]2C(=O)N[C@@H](CC(C)C)C(=O)NCC(N)=O)NC(=O)[C@H](CC(N)=O)NC(=O)[C@H](CCC(N)=O)NC1=O [OT, oxytocin]
i.c.v.
  erectogenic activity: erectogenic
iv., doses up to two orders of magnitude greater than i.c.v.
  erectogenic activity: erectogenic activity
